Data reported in US8058451B2, “Hydroxycucurbituril derivatives, their preparation methods and uses” (Postech Foundation, priority 2002, dated 2011).

Legend:
[1] = Host-guest complex formation with p-toluidine in D2O; type: binding; conditions: 6.6 mg host, 1.2 mg p-toluidine, 0.5 mL D2O
Protocol: 6.6 mg of hydroxycucurbit[6]uril (CB[6]^OH) prepared in Synthesis Example 1 and 1.2 mg of p-toluidine were dissolved in 0.5 mL of D2O.

[2] = Host-guest complex formation with acetylcholine chloride in D2O; type: binding; conditions: 6.6 mg host, 2.0 mg acetylcholine chloride, 0.5 mL D2O
Protocol: To investigate whether the hydroxycucurbituril derivatives prepared in Synthesis Example 1 can effectively transport physiologically active materials or drugs, the following example was carried out using acetylcholine chloride as a neurotransmitter.

[3] = Host-guest complex formation with tetrahydrofuran in D2O; type: binding; conditions: 6.6 mg host, 10 μL tetrahydrofuran, 0.5 mL D2O
Protocol: 6.6 mg of hydroxycucurbit[6]uril (CB[6]^OH) prepared in Synthesis Example 1 and 10 μL of tetrahydrofuran were dissolved in 0.5 mL of D2O.

[4] = Host-guest complex formation with cyclopentane in D2O; type: binding; conditions: 6.6 mg host, 10 μL cyclopentane, 0.5 mL D2O
Protocol: 6.6 mg of hydroxycucurbit[6]uril (CB[6]^OH) prepared in Synthesis Example 1 and 10 μL of cyclopentane were dissolved in 0.5 mL of D2O.

[5] = Host-guest complex formation with isobutene gas in D2O; type: binding; conditions: 6.6 mg host in 0.5 mL D2O, isobutene gas injected
[6] = Host-guest complex formation with 1,4-phenylindiamine in D2O; type: binding; conditions: 6.6 mg host, 1.2 mg 1,4-phenylindiamine, 0.5 mL D2O
Protocol: 6.6 mg of hydroxycucurbit[6]uril (CB[6]^OH) prepared in Synthesis Example 1 and 1.2 mg of 1,4-phenylindiamine were dissolved in 0.5 mL of D2O.

[7] = Host-guest complex formation with p-toluidine hydrochloride in D2O; type: binding; conditions: 6.6 mg host, 1.5 mg p-toluidine hydrochloride, 0.5 mL D2O
Protocol: 6.6 mg of hydroxycucurbit[6]uril (CB[6]^OH) prepared in Synthesis Example 1 and 1.5 mg of p-toluidine hydrochloride were dissolved in 0.5 mL of D2O.

[8] = Ion selective electrode responses to ammonium, potassium, sodium, choline and acetylcholine ions
Protocol: 1% by weight of allyoxycucurbit[6]uril prepared in Synthesis Example 8, 33% by weight of polyvinylchloride and 66% by weight of 2-nitrophenyloctylether were dissolved in THF to form a membrane. With this membrane, an ion selective electrode was fabricated. Then, the responses of the electrode with respect to ammonium ion, potassium ion, sodium ion, choline ion and acetylcholine ion were measured in a 0.01M Tris-buffered solution. As a result, the selectivity of choline with respect to acetylcholine was −1.84, ammonium ion −1.31, potassium ion −0.90 and sodium ion −1.16, respectively. The allyloxycurcubit[6]uril according to the present invention can be advantageously used in clinical analysis by selective detection of a neurotransmitter in vivo, e.g., acetylcholine, instead of choline which is a major obstacle in analyzing acetylcholine. The ion selective electrode using allyoxycucurbit[6]uril can be used in measuring acetylcholine in a concentration range of 2.1×10^−6 M.

[9] = Binding of ammonium ions in organic solvent (CD3CN); conditions: 5.5 mg host, 6.7 mg (NH4)+(BPh4)-, 0.5 mL CD3CN
Protocol: To investigate whether ammonium ions present in an organic solvent can bind with CB[5]^OH, the following example was carried out.
5.5 mg of CB[5]^OH prepared in Synthesis Example 2 and 6.7 mg of (NH4)^+(BPh4)^− were dissolved in 0.5 mL CD3CN. Then, ammonium ions in (NH4)^+(BPh4)^− could bind with CB[5]^OH in an acetonitrile solution.

[10] = Binding constant measurement by microcalorimeter (VP-ITC) with KCl solution; conditions: 0.05 M Tris-buffered solution pH 7.2; 5.5 mM host, 110 mM KCl
Protocol: Since the hydroxycucurbituril derivatives obtained in Synthesis Example 1 have Lewis base atoms near the cavities of the molecule, they can effectively form a complex with metal ions or positively charged organic compounds. With these features, in order to investigate whether the hydroxycucurbituril derivatives having this property can be applied in manufacturing sensors for sensing metal ions or ammonium ions, the following example was carried out.
A 0.05 M Tris-buffered solution of pH 7.2 was prepared, and then a 5.5 mM hydroxycucurbit[5]uril (CB[5]^OH) solution prepared in Synthesis Example 2 and 110 mM of a KCl solution were prepared. Then, the binding constants of the cucurbit[5]uril derivative was measured using a microcalorimeter (VP-ITC, manufactured by MicroCal).

[11] = Ion selective electrode, potential differences on adding lead ions; conditions: 1 mM Mg(OAc)2-HCl buffered solution pH 4; lead ions 10^-6 M to 10^-3 M
Protocol: A solution obtained by dissolving 1% by weight of CB[5]^OH prepared in Synthesis Example 2 in 0.1 mL of methanol, 33% by weight of polyvinylchloride used as a polymer support, 65.6% by weight of 2-nitrophenyloctylether used as a plasticizer and 0.4 mL of tetrahydrofuran dissolved in 0.4% by weight of potassium tetrakis(4-chlorophenyl)borate, were homogenously mixed, followed by slowly removing the solvent, to form an ion selective membrane. An ion selective electrode was fabricated with this ion selective membrane. An electrode with a silver wire coated with silver chloride in a 0.05 M aqueous KCl solution was used as a reference electrode.
The reference electrode and the ion selective electrode were immersed in 250 mL of 1 mM Mg(OAc)2—HCl buffered solution (pH=4), followed by continuously stirring for at least 1 hour until a membrane boundary potential was stabilized. Thereafter, potential differences were measured with adding lead ions to increase the concentration by 10 fold in the range of 10^−6 M to 10^−3 M using a micropipet at an interval of 100 seconds

## hydroxycucurbit[6]uril [CB[6]^OH]
[1]
  host-guest complex formation with p-toluidine: Quantitative formation of a 1:1 host-guest complex
[2]
  host-guest complex formation with acetylcholine chloride: forming a 1:1 host-guest complex
[3]
  host-guest complex formation with tetrahydrofuran: Quantitative formation of a 1:1 host-guest complex
[4]
  host-guest complex formation with cyclopentane: Quantitative formation of a 1:1 host-guest complex
[5]
  host-guest complex formation with isobutene gas: forming a 1:1 host-guest complex
[6]
  host-guest complex formation with 1,4-phenylindiamine: Quantitative formation of a 1:1 host-guest complex
[7]
  host-guest complex formation with p-toluidine hydrochloride: Quantitative formation of a 1:1 host-guest complex

## Allyloxycucurbit[6]uril [allyoxycucurbit[6]uril]
[8]
  concentration range in which acetylcholine can be measured: 2.1 µM

## hydroxycucurbit[5]uril [CB[5]^OH]
[9]
  binding of ammonium ions of (NH4)+(BPh4)- in acetonitrile solution: could bind
[10]
  binding with alkali metal ions and ammonium ions (microcalorimeter): could selectively bind with alkali metal ions, as well as with ammonium ions
[11]
  ion selective electrode detection of heavy metal ions (lead): could be used in detecting harmful heavy metal ions remaining in water
